Assay results published in publication PMC9410420, “Novel Labdane Diterpenes-Based Synthetic Derivatives: Identification of a Bifunctional Vasodilator That Inhibits CaV1.2 and Stimulates KCa1.1 Channels” (Marine Drugs, 2022).
Like-named read-outs stand apart in the source and are kept apart here.

Legend:
[1] = test system: rat aorta rings; experiment: KCl-induced contraction of rat aorta rings (electromechanical coupling)
Procedure: The abdominal aorta was gently cleaned of adipose and connective tissues and cut into 3-mm wide rings. These were mounted in organ baths between two parallel, L-shaped, stainless-steel hooks, with one fixed in place and the other connected to an isometric transducer. Rings were allowed to equilibrate for 60 min in modified Krebs-Henseleit solution (composition in mM: 118 NaCl, 4.75 KCl, 1.19 KH2PO4, 1.19 MgSO4, 25 NaHCO3, 11.5 glucose, 2.5 CaCl2, gassed with a 95% O2–5% CO2 gas mixture to create a pH of 7.4) under a passive tension of 1 g. During this equilibration period, the solution was changed every 15 min. Isometric tension was recorded using a digital PowerLab data acquisition system (PowerLab 8/30; ADInstruments). Ring viability was assessed by recording the response to 0.3 µM phenylephrine and 60 mM KCl. Where needed, the endothelium was removed by gently rubbing the lumen of the ring with a forceps tip. This procedure was validated by adding 10 µM acetylcholine at the plateau of phenylephrine-induced contraction; a relaxation greater than 70% or less than 10% denoted the presence or absence of functional endothelium, respectively.
Aorta rings were pre-contracted pharmaco-mechanically using 0.3 µM phenylephrine and electromechanically using 25–30 mM or 60 mM KCl. Once the contraction reached a plateau, the compound was added cumulatively into the organ bath. […] The response was calculated as the percentage of phenylephrine- or KCl-induced contraction (taken as 100%).

[2] = biological target: T1, CaV1.2 channel (Rattus norvegicus, UniProt P22002); experiment: Whole-cell patch-clamp, Ba2+ current through CaV1.2 channels (IBa1.2) in rat tail artery myocytes; format: cell-based; settings: pulses to 10 mV from Vh −50 mV
T1 construct: smooth muscle cells were freshly isolated; endogenous in cells; host or cells: freshly isolated rat tail main artery smooth muscle cells
T1 sequence (P22002 whole entry): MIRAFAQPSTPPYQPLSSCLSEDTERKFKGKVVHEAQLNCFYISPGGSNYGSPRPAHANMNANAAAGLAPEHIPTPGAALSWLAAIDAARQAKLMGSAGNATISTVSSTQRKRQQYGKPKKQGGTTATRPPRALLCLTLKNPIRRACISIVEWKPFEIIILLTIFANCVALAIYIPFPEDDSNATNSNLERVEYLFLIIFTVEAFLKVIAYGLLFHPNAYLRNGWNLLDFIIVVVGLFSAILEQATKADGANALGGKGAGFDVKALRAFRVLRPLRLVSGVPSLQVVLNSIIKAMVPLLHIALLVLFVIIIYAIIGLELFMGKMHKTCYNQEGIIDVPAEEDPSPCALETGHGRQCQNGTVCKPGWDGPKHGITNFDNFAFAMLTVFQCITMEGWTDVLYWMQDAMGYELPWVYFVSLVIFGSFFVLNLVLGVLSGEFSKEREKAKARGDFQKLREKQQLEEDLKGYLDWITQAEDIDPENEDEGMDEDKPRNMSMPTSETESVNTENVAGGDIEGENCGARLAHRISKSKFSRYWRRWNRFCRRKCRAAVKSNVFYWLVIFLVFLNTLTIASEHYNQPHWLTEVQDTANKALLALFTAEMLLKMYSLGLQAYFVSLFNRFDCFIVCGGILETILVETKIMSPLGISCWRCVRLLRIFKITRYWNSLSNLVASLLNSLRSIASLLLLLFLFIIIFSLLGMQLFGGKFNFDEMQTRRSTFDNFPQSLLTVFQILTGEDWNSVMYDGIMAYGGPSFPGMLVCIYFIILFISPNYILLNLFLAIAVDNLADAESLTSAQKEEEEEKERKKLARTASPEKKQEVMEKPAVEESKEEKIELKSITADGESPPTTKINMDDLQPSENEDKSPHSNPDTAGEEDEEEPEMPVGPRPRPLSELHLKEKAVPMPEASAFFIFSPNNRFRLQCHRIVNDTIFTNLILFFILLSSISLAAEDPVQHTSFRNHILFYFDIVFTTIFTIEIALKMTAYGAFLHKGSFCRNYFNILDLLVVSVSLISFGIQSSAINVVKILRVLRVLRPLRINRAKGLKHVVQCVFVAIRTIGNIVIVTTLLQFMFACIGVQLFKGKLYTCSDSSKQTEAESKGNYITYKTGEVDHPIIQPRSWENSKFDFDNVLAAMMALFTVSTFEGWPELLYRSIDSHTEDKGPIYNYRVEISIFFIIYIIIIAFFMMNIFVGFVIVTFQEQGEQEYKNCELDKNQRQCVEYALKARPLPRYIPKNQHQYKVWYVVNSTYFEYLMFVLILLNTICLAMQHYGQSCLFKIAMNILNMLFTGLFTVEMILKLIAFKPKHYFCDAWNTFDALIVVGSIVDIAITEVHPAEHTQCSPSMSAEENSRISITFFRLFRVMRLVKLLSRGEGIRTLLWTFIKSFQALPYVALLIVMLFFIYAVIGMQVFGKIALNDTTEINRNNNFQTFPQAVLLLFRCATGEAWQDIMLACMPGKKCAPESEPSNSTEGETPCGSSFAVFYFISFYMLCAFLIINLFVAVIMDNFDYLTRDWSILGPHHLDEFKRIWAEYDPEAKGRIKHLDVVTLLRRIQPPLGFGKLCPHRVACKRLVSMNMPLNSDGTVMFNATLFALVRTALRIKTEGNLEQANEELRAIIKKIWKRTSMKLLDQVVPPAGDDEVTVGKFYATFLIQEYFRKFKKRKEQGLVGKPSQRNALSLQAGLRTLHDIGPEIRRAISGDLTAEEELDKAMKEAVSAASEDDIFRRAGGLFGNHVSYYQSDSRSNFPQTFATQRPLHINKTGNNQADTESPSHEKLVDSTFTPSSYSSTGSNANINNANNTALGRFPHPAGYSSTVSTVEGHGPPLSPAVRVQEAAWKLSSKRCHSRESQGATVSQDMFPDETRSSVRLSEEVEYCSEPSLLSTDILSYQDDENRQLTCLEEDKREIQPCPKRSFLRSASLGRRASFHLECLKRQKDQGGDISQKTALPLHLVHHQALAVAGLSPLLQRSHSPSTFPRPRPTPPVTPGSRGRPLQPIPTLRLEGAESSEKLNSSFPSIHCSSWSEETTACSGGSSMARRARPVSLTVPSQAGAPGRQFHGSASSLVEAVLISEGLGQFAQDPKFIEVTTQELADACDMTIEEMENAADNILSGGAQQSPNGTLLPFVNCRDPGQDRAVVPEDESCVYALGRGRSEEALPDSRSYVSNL
T1 sequence (P54290 25-944 partner limits assumed): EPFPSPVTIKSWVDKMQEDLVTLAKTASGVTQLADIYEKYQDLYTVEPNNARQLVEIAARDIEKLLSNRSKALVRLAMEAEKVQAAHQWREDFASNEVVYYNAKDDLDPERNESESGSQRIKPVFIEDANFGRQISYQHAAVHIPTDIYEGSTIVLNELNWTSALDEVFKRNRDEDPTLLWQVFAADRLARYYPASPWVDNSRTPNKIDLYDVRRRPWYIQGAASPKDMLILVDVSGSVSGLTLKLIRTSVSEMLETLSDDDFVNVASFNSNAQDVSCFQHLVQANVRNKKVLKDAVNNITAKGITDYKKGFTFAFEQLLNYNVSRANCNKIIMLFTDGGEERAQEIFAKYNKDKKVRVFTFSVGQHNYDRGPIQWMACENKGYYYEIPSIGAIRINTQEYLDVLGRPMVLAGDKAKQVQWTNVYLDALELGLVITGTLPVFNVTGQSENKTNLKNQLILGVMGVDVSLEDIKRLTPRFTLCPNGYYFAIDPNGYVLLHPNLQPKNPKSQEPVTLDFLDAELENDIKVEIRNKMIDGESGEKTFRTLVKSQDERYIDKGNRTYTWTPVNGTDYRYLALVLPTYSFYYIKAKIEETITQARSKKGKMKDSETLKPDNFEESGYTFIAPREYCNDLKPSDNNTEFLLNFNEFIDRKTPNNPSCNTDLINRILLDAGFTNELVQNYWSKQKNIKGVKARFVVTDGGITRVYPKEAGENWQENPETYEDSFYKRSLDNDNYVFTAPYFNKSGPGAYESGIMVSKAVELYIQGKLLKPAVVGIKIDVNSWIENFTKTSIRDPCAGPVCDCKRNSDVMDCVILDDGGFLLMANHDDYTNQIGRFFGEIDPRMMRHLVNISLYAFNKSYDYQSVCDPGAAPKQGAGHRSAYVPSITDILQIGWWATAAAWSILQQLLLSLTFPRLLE
T1 sequence (P54290 945-1091 partner limits assumed): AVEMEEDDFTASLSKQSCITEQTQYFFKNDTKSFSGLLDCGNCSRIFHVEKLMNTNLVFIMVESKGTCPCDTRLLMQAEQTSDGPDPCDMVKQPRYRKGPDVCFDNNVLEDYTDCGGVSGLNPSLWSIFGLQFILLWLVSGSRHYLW
T1 sequence (P54287 whole entry partner): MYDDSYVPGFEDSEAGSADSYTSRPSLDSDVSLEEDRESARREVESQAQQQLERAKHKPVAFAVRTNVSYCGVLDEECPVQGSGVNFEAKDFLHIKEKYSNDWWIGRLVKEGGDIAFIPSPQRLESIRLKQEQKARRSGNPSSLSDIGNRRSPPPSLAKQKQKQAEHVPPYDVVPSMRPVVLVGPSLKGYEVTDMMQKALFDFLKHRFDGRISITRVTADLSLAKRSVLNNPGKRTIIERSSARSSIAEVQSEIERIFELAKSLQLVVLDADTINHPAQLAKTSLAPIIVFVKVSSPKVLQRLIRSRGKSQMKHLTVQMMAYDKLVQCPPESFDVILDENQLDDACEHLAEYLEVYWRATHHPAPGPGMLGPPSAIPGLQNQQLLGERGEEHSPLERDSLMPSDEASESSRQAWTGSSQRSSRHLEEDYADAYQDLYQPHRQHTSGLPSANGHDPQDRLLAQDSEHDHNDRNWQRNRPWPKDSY
Procedure: The tail main artery was dissected free of its connective tissue, and smooth muscle cells were freshly isolated under the following conditions. […] Cells stored in 0.05 mM Ca^2+ external solution containing 20 mM taurine and 0.5 mg/mL BSA at 4 °C under normal air were used for experiments within two days after isolation.
An Axopatch 200B patch-clamp amplifier (Molecular Devices Corporation, Sunnyvale, CA, USA) was used to generate and apply voltage pulses to the clamped cells and record the corresponding membrane currents. Recording electrodes were pulled from borosilicate glass capillaries (WPI, Berlin, Germany) and fire-polished to obtain a pipette resistance of 2–4 MΩ, when filled with an internal solution. At the beginning of each experiment, the junction potential between the pipette and bath solution was electronically adjusted to zero. […] Electrophysiological responses were tested at room temperature (20–22 °C).
The conventional whole-cell patch-clamp method was employed to voltage-clamp smooth muscle cells. The internal solution consisted of (in mM) 100 CsCl, 10 HEPES, 11 EGTA, 2 MgCl2, 1 CaCl2 (pCa 8.4), 5 Na pyruvate, 5 succinic acid, 5 oxaloacetic acid, 3 Na2ATP, and 5 phosphocreatine; pH was adjusted to 7.4 with CsOH. IBa1.2 was recorded in an external solution containing 30 mM TEA and 5 mM Ba^2+. […] Data were collected once the current amplitude had been stabilized (usually 7–10 min after the whole-cell configuration had been obtained).

[3] = biological target: T1, CaV1.2 channel; experiment: Voltage dependence of CaV1.2 channel steady-state activation and inactivation in rat tail artery myocytes; format: cell-based; settings: for Slope inact (slope factor of inactivation) / V50 inact (50% inactivation potential): Vh −80 mV
Description: An Axopatch 200B patch-clamp amplifier (Molecular Devices Corporation, Sunnyvale, CA, USA) was used to generate and apply voltage pulses to the clamped cells and record the corresponding membrane currents. Recording electrodes were pulled from borosilicate glass capillaries (WPI, Berlin, Germany) and fire-polished to obtain a pipette resistance of 2–4 MΩ, when filled with an internal solution. At the beginning of each experiment, the junction potential between the pipette and bath solution was electronically adjusted to zero. After compensation for whole-cell capacitance and series resistance (between 70% and 75%), current signals were low-pass filtered at 1 kHz and digitized at 3 kHz, before being stored on a computer hard disk. Electrophysiological responses were tested at room temperature (20–22 °C).
Cells were continuously superfused with an external solution containing 0.1 mM Ca^2+ and 30 mM TEA using a peristaltic pump (LKB 2132, Bromma, Sweden) at a flow rate of 400 µL/min. The conventional whole-cell patch-clamp method was employed to voltage-clamp smooth muscle cells. The internal solution consisted of (in mM) 100 CsCl, 10 HEPES, 11 EGTA, 2 MgCl2, 1 CaCl2 (pCa 8.4), 5 Na pyruvate, 5 succinic acid, 5 oxaloacetic acid, 3 Na2ATP, and 5 phosphocreatine; pH was adjusted to 7.4 with CsOH. IBa1.2 was recorded in an external solution containing 30 mM TEA and 5 mM Ba^2+. The current was elicited with 250-ms clamp pulses (0.067 Hz) to 10 mV, from a Vh of −50 mV. Data were collected once the current amplitude had been stabilized (usually 7–10 min after the whole-cell configuration had been obtained).
Steady-state activation curves were derived from the current–voltage relationships. Conductance (G) was calculated from the equation G = IBa1.2/(Em − Erev), where: IBa1.2 is the peak current elicited by depolarizing test pulses between −50 mV and 40 mV from a Vh of −50 mV; Em is the membrane potential; and Erev is the reversal potential (estimated from the extrapolated current-voltage curves in Figure 2). Gmax is the maximal Ba^2+ conductance (calculated at potentials ≤40 mV). The G/Gmax ratio was plotted against the membrane potential and fitted to the Boltzmann equation [40]. Steady-state inactivation curves were obtained using a double-pulse protocol. Once various levels of the conditioning potential had been applied for 5 s, followed by a short (5-ms) return to the Vh of −80 mV, a test pulse (250 ms) to 10 mV was delivered to evoke the current. The delay between the conditioning potential and the test pulse allowed the full or near-complete deactivation of the channels, simultaneously avoiding partial recovery from inactivation. K^+ currents were blocked with 30 mM TEA in the external solution and Cs^+ in the internal solution. […] The osmolarity of the 30 mM TEA- and 5 mM Ba^2+-containing external solution (320 mosmol, adjusted with NaCl if required) and that of the internal solution (290 mosmol) were measured with an osmometer (Osmostat OM 6020, Menarini Diagnostics, Florence, Italy).

## CC1(C)CCC[C@]2(C)[C@@H](CC(=O)Nc3ccccc3-n3cccc3)[C@](C)(O)CC[C@@H]12 [Compound 7]
[1]; endothelium-denuded rat aorta rings pre-contracted by 25 mM KCl, read-out: Emax (percent maximal inhibition), KCl 25 mM-induced contraction
  Emax: 94.3 ± 4.5%
[1]; endothelium-denuded rat aorta rings pre-contracted by 25 mM KCl, read-out: IC50, KCl 25 mM-induced contraction
  IC50: 0.2 ± 0.1 µM
[1]; endothelium-denuded rat aorta rings pre-contracted by 60 mM KCl, read-out: Emax (percent maximal inhibition), KCl 60 mM-induced contraction
  Emax: 89.7 ± 1.9%
[1]; endothelium-denuded rat aorta rings pre-contracted by 60 mM KCl, read-out: IC50, KCl 60 mM-induced contraction
  IC50: 9.3 ± 2 µM
[2]; read-out: Emax (percent maximal inhibition), IBa1.2
  Emax: 90.5 ± 5.8%
[2]; read-out: IC50, IBa1.2 inhibition
  IC50: 13.2 ± 5.4 µM
[3]; 10 µM compound
  Slope act (slope factor of activation): 8.36 ± 0.75
  Slope inact (slope factor of inactivation): −7.53 ± 0.24
  V50 inact (50% inactivation potential): −30.24 ± 1.29 mV
[3]; 10 µM, control peaked at −10 mV
  Ba2+ window current, potential of the peak: about −15 mV
[3]; 10 µM, control relative amplitude 0.078
  Ba2+ window current, relative amplitude at peak: 0.021
[3]; 30 µM compound
  Slope inact (slope factor of inactivation): −7.70 ± 0.51
  V50 inact (50% inactivation potential): −38.29 ± 2.00 mV
